Assays:
[1] = target: T1, Carbonic anhydrase 4 (Bos taurus, UniProt Q95323)
T1 sequence (Q95323 whole entry): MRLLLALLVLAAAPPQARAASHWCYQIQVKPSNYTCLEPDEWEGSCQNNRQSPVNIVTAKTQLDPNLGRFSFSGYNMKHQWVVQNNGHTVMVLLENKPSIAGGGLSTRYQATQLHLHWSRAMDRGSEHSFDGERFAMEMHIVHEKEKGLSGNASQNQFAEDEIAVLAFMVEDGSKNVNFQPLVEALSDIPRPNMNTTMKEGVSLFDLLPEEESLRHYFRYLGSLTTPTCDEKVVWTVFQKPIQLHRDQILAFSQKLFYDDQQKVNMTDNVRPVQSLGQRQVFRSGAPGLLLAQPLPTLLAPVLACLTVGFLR
Description: Inhibition of bovine carbonic anhydrase IV (CA4) from bovine lung microsomes

[2] = target: Carbonic anhydrase 1 (Homo sapiens, UniProt P00915)
Carbonic anhydrase 1, sequence (P00915 whole entry): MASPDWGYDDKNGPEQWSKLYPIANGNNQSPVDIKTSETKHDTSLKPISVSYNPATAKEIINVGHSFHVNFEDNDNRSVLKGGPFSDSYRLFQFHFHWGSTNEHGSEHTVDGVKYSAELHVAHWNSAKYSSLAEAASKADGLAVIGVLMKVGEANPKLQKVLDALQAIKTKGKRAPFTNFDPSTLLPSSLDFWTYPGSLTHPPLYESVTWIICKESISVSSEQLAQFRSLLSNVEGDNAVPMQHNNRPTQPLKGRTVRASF
Description: Inhibition of human recombinant carbonic anhydrase I (CA1)

Row | Compound | Ki [1] [nM] | Ki [2] [nM]
1 | NS(=O)(=O)c1nc2ccc(NS(=O)(=O)C(F)(F)F)cc2s1 | 8 | 70
2 | NS(=O)(=O)c1ccc(NS(=O)(=O)c2c(F)c(F)c(F)c(F)c2F)c(Br)c1 | 550 | 1500
3 | Cn1nc(S(N)(=O)=O)s/c1=N/C(=O)C(F)(F)C(F)(F)C(F)(F)C(F)(F)C(F)(F)C(F)(F)C(F)(F)C(F)(F)F | 18 | 330
4 | NS(=O)(=O)c1ccc(CCOC(=O)C(F)(F)C(F)(F)C(F)(F)C(F)(F)C(F)(F)C(F)(F)C(F)(F)C(F)(F)F)cc1 | 12000 | 20000
5 | NS(=O)(=O)c1ccc(Nc2ccnc(NC(=O)C(F)(F)C(F)(F)C(F)(F)C(F)(F)C(F)(F)C(F)(F)C(F)(F)C(F)(F)F)n2)cc1 | 36 | 4400
6 | NS(=O)(=O)c1nnc(NC(=O)CCNS(=O)(=O)C(F)(F)C(F)(F)C(F)(F)C(F)(F)C(F)(F)C(F)(F)C(F)(F)C(F)(F)F)s1 | 9 | 300
7 | Cn1nc(S(N)(=O)=O)sc1=NS(=O)(=O)C(F)(F)C(F)(F)C(F)(F)C(F)(F)C(F)(F)C(F)(F)C(F)(F)C(F)(F)F | 14 | 380
8 | NS(=O)(=O)c1nc2ccc(OS(=O)(=O)c3c(F)c(F)c(F)c(F)c3F)cc2s1 | 6 | 25
9 | NS(=O)(=O)c1ccc(CCNC(=O)C(F)(F)C(F)(F)C(F)(F)C(F)(F)C(F)(F)C(F)(F)C(F)(F)C(F)(F)F)cc1 | 520 | 950
10 | NS(=O)(=O)c1ccc(CCNC(=O)c2c(F)c(F)c(F)c(F)c2F)cc1 | 310 | 900
11 | NS(=O)(=O)c1ccc(NS(=O)(=O)c2ccc(NS(=O)(=O)C(F)(F)C(F)(F)C(F)(F)C(F)(F)F)cc2)cc1 | 31 | 3600
12 | NS(=O)(=O)c1nc2ccc(OS(=O)(=O)C(F)(F)C(F)(F)C(F)(F)C(F)(F)C(F)(F)C(F)(F)C(F)(F)C(F)(F)F)cc2s1 | 8 | 28
13 | NS(=O)(=O)c1cc(S(N)(=O)=O)c(NS(=O)(=O)C(F)(F)C(F)(F)C(F)(F)C(F)(F)C(F)(F)C(F)(F)C(F)(F)C(F)(F)F)c(Cl)c1Cl | 765 | 8000
14 | NS(=O)(=O)c1ccc(Nc2ccnc(NS(=O)(=O)C(F)(F)C(F)(F)C(F)(F)C(F)(F)F)n2)cc1 | 30 | 6000
15 | NS(=O)(=O)c1ccc(NS(=O)(=O)C(F)(F)F)c(Cl)c1 | 42000 | 180000
16 | NS(=O)(=O)c1ccc(NS(=O)(=O)c2ccc(NS(=O)(=O)C(F)(F)C(F)(F)C(F)(F)C(F)(F)C(F)(F)C(F)(F)C(F)(F)C(F)(F)F)cc2)cc1 | 29 | 3000

Row | Compound | Ki [1] [nM] | Ki [2] [nM]
17 | NS(=O)(=O)c1ccc(NC(=O)C(F)(F)C(F)(F)C(F)(F)C(F)(F)C(F)(F)C(F)(F)C(F)(F)C(F)(F)F)c(I)c1 | 680 | 3000
18 | NS(=O)(=O)c1ccc(CCOS(=O)(=O)C(F)(F)C(F)(F)C(F)(F)C(F)(F)C(F)(F)C(F)(F)C(F)(F)C(F)(F)F)cc1 | 12300 | 22000
19 | NS(=O)(=O)c1ccc(NS(=O)(=O)C(F)(F)C(F)(F)C(F)(F)C(F)(F)F)c(F)c1 | 200 | 1070
20 | NS(=O)(=O)c1ccc(COS(=O)(=O)C(F)(F)C(F)(F)C(F)(F)C(F)(F)C(F)(F)C(F)(F)C(F)(F)C(F)(F)F)cc1 | 10900 | 15000
21 | NS(=O)(=O)c1cccc(NS(=O)(=O)C(F)(F)C(F)(F)C(F)(F)C(F)(F)F)c1 | 590 | 18400
22 | NS(=O)(=O)c1cc(S(N)(=O)=O)c(NC(=O)C(F)(F)C(F)(F)C(F)(F)C(F)(F)C(F)(F)C(F)(F)C(F)(F)C(F)(F)F)cc1Cl | 130 | 810
23 | NS(=O)(=O)c1ccc(CCNS(=O)(=O)C(F)(F)C(F)(F)C(F)(F)C(F)(F)F)cc1 | 240 | 12500
24 | NS(=O)(=O)c1cc(S(N)(=O)=O)c(NS(=O)(=O)c2c(F)c(F)c(F)c(F)c2F)c(Cl)c1Cl | 142 | 1500
25 | NS(=O)(=O)c1nc2ccc(NC(=O)c3c(F)c(F)c(F)c(F)c3F)cc2s1 | 8 | 120
26 | NS(=O)(=O)c1ccc(NS(=O)(=O)c2ccc(NS(=O)(=O)C(F)(F)F)cc2)cc1 | 40 | 4000
27 | NS(=O)(=O)c1ccc(NS(=O)(=O)C(F)(F)C(F)(F)C(F)(F)C(F)(F)F)c(Br)c1 | 900 | 20300
28 | NS(=O)(=O)c1cc(S(N)(=O)=O)c(NC(=O)C(F)(F)C(F)(F)C(F)(F)C(F)(F)C(F)(F)C(F)(F)C(F)(F)C(F)(F)F)c(Cl)c1Cl | 830 | 7000
29 | NS(=O)(=O)c1cc(S(N)(=O)=O)c(NS(=O)(=O)C(F)(F)C(F)(F)C(F)(F)C(F)(F)C(F)(F)C(F)(F)C(F)(F)C(F)(F)F)cc1Cl | 155 | 890
30 | NS(=O)(=O)c1ccc(NS(=O)(=O)c2ccc(NC(=O)C(F)(F)C(F)(F)C(F)(F)C(F)(F)C(F)(F)C(F)(F)C(F)(F)C(F)(F)F)cc2)cc1 | 25 | 2400
31 | NS(=O)(=O)c1ccc(CNC(=O)c2c(F)c(F)c(F)c(F)c2F)cc1 | 350 | 980
32 | NS(=O)(=O)c1cccc(NS(=O)(=O)C(F)(F)C(F)(F)C(F)(F)C(F)(F)C(F)(F)C(F)(F)C(F)(F)C(F)(F)F)c1 | 870 | 1400

Source: ChEMBL document CHEMBL1133531, “Carbonic anhydrase inhibitors: perfluoroalkyl/aryl-substituted derivatives of aromatic/heterocyclic sulfonamides as topical intraocular pressure-lowering agents with prolonged duration of action” (J Med Chem, 2000)
